From US8188078B2 (Sanofi-Aventis, priority 2007, dated 2012) come the findings set out here.

By IC50 is commonly meant the concentration at which inhibition is half-maximal. A low value points to inhibition by little substance.

The target of one test is RON (Homo sapiens, UniProt Q04912). As to the kind of experiment: Test B: HTRF RON test in 96-well format. The format is biochemical. In a few lines: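 RON 5 nM pre-incubated 30 min at RT with compound (0.17 nM–10 μM final, 3% DMSO) in MOPS 10 mM pH 7, DTT, Tween 20. Reaction with biotinylated poly-(GAT) 1 μg/ml, ATP 10 μM, MgCl2 5 mM, 30 min RT. Eu-anti-pTyr/streptavidin-XL665 HTRF, 665/620 ratio gives % inhibition, IC50.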
(In general: Time-resolved FRET reads energy transfer from a long-lived donor to a nearby acceptor.)

The target of the next test is T1, MET (Homo sapiens, UniProt P08581).
T1 construct: endogenous in cells; host or cells: MKN45 cells
As to the kind of experiment: Test C: inhibition of the autophosphorylation of MET, ELISA technique (pppY1230, 1234, 1235), MKN45 cells. The format is cell-based. In a few lines:
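MKN45 cells adhered 24 h, then treated 1 h with compound at 6 concentrations in duplicate, final range 10000 to 30 nM. Lysates assayed by phospho-MET (pY1230/1234/1235) sandwich ELISA with HRP chromogen read at 450 nm.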
Background: An ELISA detects its analyte on a solid surface through an enzyme-linked reagent.

Where a name gives a salt, the structure may show the parent alone. Where only a bound is given, the exact number is not on record here.

T1 sequence (P08581 25-1390): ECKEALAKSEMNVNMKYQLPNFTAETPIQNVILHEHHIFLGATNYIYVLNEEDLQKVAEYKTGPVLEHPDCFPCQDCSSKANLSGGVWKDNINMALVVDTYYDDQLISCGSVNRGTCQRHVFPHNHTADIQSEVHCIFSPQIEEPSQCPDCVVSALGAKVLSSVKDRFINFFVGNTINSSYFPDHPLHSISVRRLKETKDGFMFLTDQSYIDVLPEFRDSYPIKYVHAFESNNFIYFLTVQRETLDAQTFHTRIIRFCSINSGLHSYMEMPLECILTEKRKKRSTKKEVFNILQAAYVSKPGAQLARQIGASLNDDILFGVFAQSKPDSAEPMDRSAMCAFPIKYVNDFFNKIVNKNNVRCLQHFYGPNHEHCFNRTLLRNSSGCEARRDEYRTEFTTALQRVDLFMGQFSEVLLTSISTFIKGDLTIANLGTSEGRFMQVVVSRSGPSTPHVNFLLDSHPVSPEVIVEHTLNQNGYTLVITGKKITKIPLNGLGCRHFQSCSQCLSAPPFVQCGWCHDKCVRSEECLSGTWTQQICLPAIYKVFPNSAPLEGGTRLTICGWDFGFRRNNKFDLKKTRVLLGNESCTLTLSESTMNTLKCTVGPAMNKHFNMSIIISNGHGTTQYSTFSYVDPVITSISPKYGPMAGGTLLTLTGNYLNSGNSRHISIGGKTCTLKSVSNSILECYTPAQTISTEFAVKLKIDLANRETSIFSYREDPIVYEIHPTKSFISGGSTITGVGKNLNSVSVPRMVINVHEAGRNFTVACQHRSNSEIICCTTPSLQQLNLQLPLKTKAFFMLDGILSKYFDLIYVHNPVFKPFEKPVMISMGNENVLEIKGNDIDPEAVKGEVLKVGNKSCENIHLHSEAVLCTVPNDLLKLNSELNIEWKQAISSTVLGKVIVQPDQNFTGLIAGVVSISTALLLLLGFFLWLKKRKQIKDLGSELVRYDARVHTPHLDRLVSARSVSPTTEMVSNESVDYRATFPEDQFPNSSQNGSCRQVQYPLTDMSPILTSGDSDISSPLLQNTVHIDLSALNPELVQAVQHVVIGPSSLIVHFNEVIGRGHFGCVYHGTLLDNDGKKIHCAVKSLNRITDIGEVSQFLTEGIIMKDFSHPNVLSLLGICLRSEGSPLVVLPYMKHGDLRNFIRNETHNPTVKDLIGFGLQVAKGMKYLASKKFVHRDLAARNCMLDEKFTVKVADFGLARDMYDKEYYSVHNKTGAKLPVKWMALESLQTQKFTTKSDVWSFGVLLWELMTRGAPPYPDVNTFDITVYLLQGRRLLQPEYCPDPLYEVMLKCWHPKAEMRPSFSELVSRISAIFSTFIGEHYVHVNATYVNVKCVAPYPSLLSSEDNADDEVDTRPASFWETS
Sequence of RON (Q04912 25-1400): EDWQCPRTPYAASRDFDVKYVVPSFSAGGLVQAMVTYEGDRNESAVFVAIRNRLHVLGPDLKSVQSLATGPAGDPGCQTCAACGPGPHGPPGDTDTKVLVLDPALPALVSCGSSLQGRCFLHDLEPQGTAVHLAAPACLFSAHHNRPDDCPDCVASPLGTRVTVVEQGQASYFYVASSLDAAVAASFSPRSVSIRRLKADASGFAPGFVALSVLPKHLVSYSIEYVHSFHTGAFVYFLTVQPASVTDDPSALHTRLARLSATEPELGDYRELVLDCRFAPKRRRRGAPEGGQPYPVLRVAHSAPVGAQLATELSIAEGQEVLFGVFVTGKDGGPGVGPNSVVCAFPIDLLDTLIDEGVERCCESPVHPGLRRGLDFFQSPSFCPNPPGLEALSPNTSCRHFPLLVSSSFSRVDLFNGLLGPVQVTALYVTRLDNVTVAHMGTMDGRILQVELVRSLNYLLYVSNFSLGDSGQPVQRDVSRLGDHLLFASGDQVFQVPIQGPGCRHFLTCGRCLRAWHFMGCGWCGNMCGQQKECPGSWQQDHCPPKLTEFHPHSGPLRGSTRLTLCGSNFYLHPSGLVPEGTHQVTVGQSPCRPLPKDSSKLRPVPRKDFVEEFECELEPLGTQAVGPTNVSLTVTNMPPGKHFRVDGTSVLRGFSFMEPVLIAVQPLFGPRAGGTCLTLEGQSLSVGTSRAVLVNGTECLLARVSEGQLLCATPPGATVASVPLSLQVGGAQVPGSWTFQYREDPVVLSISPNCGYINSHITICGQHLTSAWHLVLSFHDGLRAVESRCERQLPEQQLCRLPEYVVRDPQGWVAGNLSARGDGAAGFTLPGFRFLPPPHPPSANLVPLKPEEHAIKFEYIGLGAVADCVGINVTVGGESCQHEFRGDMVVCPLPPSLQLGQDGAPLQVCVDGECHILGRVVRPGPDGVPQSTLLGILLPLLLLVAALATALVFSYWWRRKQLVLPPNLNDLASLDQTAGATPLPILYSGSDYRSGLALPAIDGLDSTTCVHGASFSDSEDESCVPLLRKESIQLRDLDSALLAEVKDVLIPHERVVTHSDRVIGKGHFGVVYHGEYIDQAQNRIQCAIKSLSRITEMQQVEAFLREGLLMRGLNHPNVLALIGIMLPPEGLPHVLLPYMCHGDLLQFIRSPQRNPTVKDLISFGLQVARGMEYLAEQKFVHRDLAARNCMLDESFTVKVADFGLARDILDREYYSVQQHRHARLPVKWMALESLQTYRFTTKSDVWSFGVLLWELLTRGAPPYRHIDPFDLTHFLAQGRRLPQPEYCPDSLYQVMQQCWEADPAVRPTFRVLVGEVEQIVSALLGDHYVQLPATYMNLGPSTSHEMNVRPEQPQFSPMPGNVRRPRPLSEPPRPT

Turning to `CC(Oc1ccc2nc(NC(=O)NCc3cccnc3)sc2c1)c1c(Cl)ccc(F)c1Cl` (centres unmarked) [Example 59, 1-{6-[1-(2,6-dichloro-3-fluorophenyl)ethoxy]-1,3-benzothiazol-2-yl}-3-(pyridin-3-ylmethyl)urea], the IC50 on RON and against MET was 500 to 10000 nM throughout.
Consider `CCN1CCN(CCNC(=O)Nc2nc3cc(F)c(OC(C)c4c(Cl)ccc(F)c4Cl)cc3s2)CC1` (centres unmarked) [Example 100, 1-{6-[1-(2,6-dichloro-3-fluorophenyl)ethoxy]-5-fluoro-1,3-benzothiazol-2-yl}-3-[2-(4-ethylpiperazin-1-yl)ethyl]urea], for which the half-maximal inhibitory concentration (IC50) on RON and at MET was below 500 nM each time.
For `CC(Oc1ccc2nc(NC(=O)NCCCN3CCN(Cc4c(F)cccc4Cl)CC3)sc2c1)c1c(Cl)ccc(F)c1Cl` (centres unmarked) [Example 46, 1-{3-[4-(2-chloro-6-fluorobenzyl)piperazin-1-yl]propyl}-3-{6-[1-(2,6-dichloro-3-fluorophenyl)ethoxy]-1,3-benzothiazol-2-yl}urea], the IC50 against RON and against MET was 500 to 10000 nM in each case.
For the compound `CC(Oc1ccc2nc(NC(=O)NCCN3CCNCC3)sc2c1)c1c(Cl)ccc(F)c1Cl.O=C(O)C(F)(F)F` (centres unmarked) [Example 37, 1-{6-[1-(2,6-Dichloro-3-fluorophenyl)ethoxy]-1,3-benzothiazol-2-yl}-3-(2-piperazin-1-ylethyl)urea trifluoroacetate], the IC50 on RON and at MET was below 500 nM throughout.
Turning to `CC(Oc1ccc2nc(NC(=O)NCCN3CCOCC3)sc2c1)c1ccccc1C(F)(F)F` (centres unmarked) [Example 19, 1-(2-morpholin-4-ylethyl)-3-(6-{1-[2-(trifluoromethyl)phenyl]ethoxy}-1,3-benzothiazol-2-yl)urea], the IC50 against RON and against MET was 500 to 10000 nM throughout.
With `CC(Oc1ccc2nc(NC(=O)NCCN3CCCCC3)sc2c1)c1c(Cl)ccc(F)c1Cl` (centres unmarked) [Example 50, 1-{6-[1-(2,6-dichloro-3-fluorophenyl)ethoxy]-1,3-benzothiazol-2-yl}-3-(2-piperidin-1-ylethyl)urea], the IC50 is 500 to 10000 nM against RON and below 500 nM against MET.
For the compound `CC(Oc1ccc2nc(NC(=O)NCCN3CCOCC3)[nH]c2c1)c1c(Cl)ccc(F)c1Cl` (centres unmarked) [Example 4, 4-{2-[({6-[1-(2,6-Dichloro-3-fluorophenyl)ethoxy]-1H-benzimidazol-2-yl}carbamoyl)amino]ethyl}morpholin-4-ium trifluoroacetate], the IC50 was below 500 nM against RON and 500 to 10000 nM against MET.
The matching figures for `CC(Oc1cc2sc(NC(=O)NCCN3CCN(C)CC3)nc2cc1F)c1c(F)ccc(Cl)c1Cl` (centres unmarked) [Example 115, 1-{6-[1-(2,3-dichloro-6-fluorophenyl)ethoxy]-5-fluoro-1,3-benzothiazol-2-yl}-3-[2-(4-methylpiperazin-1-yl)ethyl]urea]: below 500 nM and below 500 nM.
The matching figures for `CC(Oc1ccc2nc(NC(=O)OCCN3CCOCC3)sc2c1)c1c(Cl)ccc(F)c1Cl` (centres unmarked) [Example 74]: 500 to 10000 nM and below 500 nM.
The corresponding values for `CC(Oc1ccc2nc(NC(=O)NCCN3CCOCC3)sc2c1)c1c(F)ccc(Cl)c1Cl` (centres unmarked) [Example 61, 1-{6-[1-(2,3-dichloro-6-fluorophenyl)ethoxy]-1,3-benzothiazol-2-yl}-3-(2-morpholin-4-ylethyl)urea] are below 500 nM and below 500 nM.
Turning to `CC(Oc1ccc2nc(NC(=O)CCCN3CCOCC3)sc2c1)c1c(Cl)ccc(F)c1Cl` (centres unmarked) [Example 65, N-{6-[1-(2,6-dichloro-3-fluorophenyl)ethoxy]-1,3-benzothiazol-2-yl}-4-(morpholin-4-yl)butanamide], the 50% inhibitory concentration (IC50) at RON and against MET was 500 to 10000 nM throughout.
For `O=C(NCCN1CCOCC1)Nc1nc2ccc(OC(c3c(Cl)cccc3Cl)C(F)(F)F)cc2s1` (centres unmarked) [Example 64, 1-{6-[1-(2,6-dichlorophenyl)-2,2,2-trifluoroethoxy]-1,3-benzothiazol-2-yl}-3-(2-morpholin-4-ylethyl)urea], the half-inhibitory concentration (IC50) on RON and on MET was 500 to 10000 nM in each case.
In the case of `O=C(NCCN1CCOCC1)Nc1nc2cc(F)c(OCc3c(Cl)cccc3Cl)cc2s1` [Example 21, 1-{6-[(2,6-dichlorobenzyl)oxy]-5-fluoro-1,3-benzothiazol-2-yl}-3-(2-morpholin-4-ylethyl)urea], the concentration for half-maximal inhibition (IC50) against RON and against MET was 500 to 10000 nM throughout.
Take `CC(Oc1ccc2nc(NC(=O)NCCN3CCOCC3)sc2c1)c1c(Cl)ccc(F)c1Cl` (single isomer, unassigned) [Example 25, 1-{6-[(1R*)-(2,6-dichloro-3-fluorophenyl)ethoxy]-1,3-benzothiazol-2-yl}-3-(2-morpholin-4-ylethyl)urea]: the half-inhibitory concentration (IC50) at RON and at MET was below 500 nM in each case.
As for `CC(Oc1ccc2nc(NC(=O)NCCN3CCN(C(=O)OC(C)(C)C)CC3)sc2c1)c1c(Cl)ccc(F)c1Cl` (centres unmarked) [Example 36, 1,1-dimethylethyl 4-{2-[({6-[1-(2,6-dichloro-3-fluorophenyl)ethoxy]-1,3-benzothiazol-2-yl}carbamoyl)amino]ethyl}piperazine-1-carboxylate], the IC50 on RON and at MET was 500 to 10000 nM in each case.
Consider `CC(Oc1ccc2nc(NC(=O)NCCN3CCOCC3)sc2c1)c1c(F)ccc(F)c1F` (centres unmarked) [Example 60, 1-(2-morpholin-4-ylethyl)-3-{6-[1-(2,3,6-trifluorophenyl)ethoxy]-1,3-benzothiazol-2-yl}urea], for which the IC50 against RON and at MET was 500 to 10000 nM each time.
In the case of `CC(Oc1ccc2nc(NC(=O)NCCN3C(C)CCCC3C)sc2c1)c1c(Cl)ccc(F)c1Cl` (centres unmarked) [Example 56, 1-{6-[1-(2,6-dichloro-3-fluorophenyl)ethoxy]-1,3-benzothiazol-2-yl}-3-[2-(2,6-dimethylpiperidin-1-yl)ethyl]urea], the IC50 against RON is 500 to 10000 nM; against MET, below 500 nM.
The corresponding values for `CC(Oc1ccc2nc(NC(=O)NCCN3CCCC3)sc2c1)c1c(Cl)ccc(F)c1Cl` (centres unmarked) [Example 51, 1-{6-[1-(2,6-dichloro-3-fluorophenyl)ethoxy]-1,3-benzothiazol-2-yl}-3-(2-pyrrolidin-1-ylethyl)urea] are 500 to 10000 nM and below 500 nM.
The matching figures for `CC(Oc1cc2sc(NC(=O)NCCN3CCCC3)nc2cc1F)c1c(F)ccc(Cl)c1Cl` (centres unmarked) [Example 118, 1-{6-[1-(2,3-dichloro-6-fluorophenyl)ethoxy]-5-fluoro-1,3-benzothiazol-2-yl}-3-[2-(pyrrolidin-1-yl)ethyl]urea]: below 500 nM and below 500 nM.
The corresponding values for `Cc1ccc(F)c(C(C)Oc2ccc3nc(NC(=O)NCCN4CCOCC4)sc3c2)c1Cl` (centres unmarked) [Example 28, 1-{6-[1-(2-chloro-6-fluoro-3-methylphenyl)ethoxy]-1,3-benzothiazol-2-yl}-3-(2-morpholin-4-ylethyl)urea] are 500 to 10000 nM and 500 to 10000 nM.
As for `O=C(NCCN1CCOCC1)Nc1nc2ccc(OCc3c(Cl)cccc3Cl)cc2s1` [Example 10, 1-{6-[(2,6-dichlorobenzyl)oxy]-1,3-benzothiazol-2-yl}-3-(2-morpholin-4-ylethyl)urea], the IC50 at RON and against MET was 500 to 10000 nM throughout.
As to `CC(Oc1cc2sc(NC(=O)NCCCO)nc2cc1F)c1c(Cl)ccc(F)c1Cl` (centres unmarked) [Example 105, 1-{6-[1-(2,6-dichloro-3-fluorophenyl)ethoxy]-5-fluoro-1,3-benzothiazol-2-yl}-3-(3-hydroxypropyl)urea], the half-inhibitory concentration (IC50) at RON and at MET was below 500 nM throughout.
For the compound `CC(Oc1cc2sc(NC(=O)NCCN3CCN(C)CC3)nc2cc1F)c1c(F)ccc(Cl)c1Cl` (single isomer, unassigned) [Example 116, 1-{6-[(1R*)-1-(2,3-dichloro-6-fluorophenyl)ethoxy]-5-fluoro-1,3-benzothiazol-2-yl}-3-[2-(4-methylpiperazin-1-yl)ethyl]urea], the IC50 against RON and on MET was below 500 nM each time.
`CC(Oc1cc2sc(NC(=O)CN3CCNCC3)nc2cc1F)c1c(Cl)ccc(F)c1Cl` (centres unmarked) [Example 69, N-{6-[1-(2,6-dichloro-3-fluorophenyl)ethoxy]-5-fluoro-1,3-benzothiazol-2-yl}-2-(piperazin-1-yl)acetamide]: the figures for the IC50 against RON and against MET were 500 to 10000 nM and below 500 nM, respectively.
The matching figures for `CC(Oc1ccc2nc(NC(=O)C3CC3)sc2c1)c1c(Cl)ccc(F)c1Cl` (centres unmarked) [Example 66, N-{6-[1-(2,6-dichloro-3-fluorophenyl)ethoxy]-1,3-benzothiazol-2-yl}cyclopropanecarboxamide]: 500 to 10000 nM and below 500 nM.
The matching figures for `CC(Oc1cc2sc(NC(=O)NCCN3CCN(C)CC3)nc2cc1F)c1c(F)ccc(Cl)c1Cl` (single isomer, unassigned) [Example 117, 1-{6-[(1S*)-1-(2,3-dichloro-6-fluorophenyl)ethoxy]-5-fluoro-1,3-benzothiazol-2-yl}-3-[2-(4-methylpiperazin-1-yl)ethyl]urea]: 500 to 10000 nM and 500 to 10000 nM.
The corresponding values for `CC(Oc1ccc2nc(NC(=O)NCCCN3CCCC3=O)sc2c1)c1c(Cl)ccc(F)c1Cl` (centres unmarked) [Example 45, 1-{6-[1-(2,6-dichloro-3-fluorophenyl)ethoxy]-1,3-benzothiazol-2-yl}-3-[3-(2-oxopyrrolidin-1-yl)propyl]urea] are 500 to 10000 nM and below 500 nM.
`CC(Oc1cc2sc(NC(=O)NCCN3CCCC3)nc2cc1F)c1c(F)ccc(Cl)c1Cl` (single isomer, unassigned) [Example 119, 1-{6-[(1R*)-1-(2,3-dichloro-6-fluorophenyl)ethoxy]-5-fluoro-1,3-benzothiazol-2-yl}-3-[2-(pyrrolidin-1-yl)ethyl]urea]: the results for the half-inhibitory concentration (IC50) on RON and against MET were 500 to 10000 nM and below 500 nM, respectively.
